We go through 16 compounds from patent publication US12691182B2, “Maytansinoid derivatives, conjugates thereof, and methods of use” (priority 2016, dated 2026).

Common to all, as to type: cell-based
The test system of test [1] is SKBR3 (Her2+) cells. Put plainly: In vitro cytotoxicity assay, SKBR3 cells (CCK8 viability). The conditions noted are these: naked payload, SKBr-3 cells, 3 days; for SKBr-3 % kill: % kill reported for the highest dose; for IC50: CCK8. As for the experimental part: (§1) In this Example, the ability of various antibody-drug conjugates and naked payloads to kill antigen-expressing tumor cells in vitro was assessed.
(§2) SKBR3 (Her2+) cells were seeded in 96 well plates at 8000 cells per well in complete growth media and grown overnight. For cell viability curves, serially diluted conjugates or naked payloads were added to the cells at final concentrations ranging from 100 nM to 5 pM and incubated for 3 days. To measure viability, cells were incubated with CCK8 (Dojindo) for the final 2 hours and the absorbance at 450 nm (OD450) was determined on a Victor (Perkin Elmer). Background OD450 levels determined from digitonin (40 nM) treated cells were subtracted from all wells and viability is expressed as a percentage of the untreated controls. IC50 values were determined from a four-parameter logistic equation over a 10-point response curve (GraphPad Prism). […] All curves and IC50 values are corrected for payload equivalents. The plot of % Cell Viability vs. Log 10 [M]
(§3) All IC50s are expressed in nM concentration and % kill is reported for the highest dose. All curves and IC50 values are corrected for payload equivalents. The plot of % Cell Viability vs. Log 10 [M]

In test [2] the test system is C4-2 (STEAP2+) cells. Put plainly: In vitro cytotoxicity assay, C4-2 cells (CellTiter-Glo viability). The settings on record: naked payload, 5 days; for C4-2 % kill: % kill reported for the highest dose; for IC50: CellTiter-Glo. The procedure: as §1
C4-2 (STEAP2+) cells were seeded in 96 well plates at 4000 cells per well in complete growth media and grown overnight. For cell viability curves, serially diluted conjugates or naked payloads were added to the cells at final concentrations ranging from 100 nM to 5 pM and incubated for 5 days. To measure viability, cells were incubated with CellTiter-Glo reagents for 5 minutes and luminescence was determined on a Victor plate reader (PerkinElmer). IC50 values were determined from a four-parameter logistic equation over a 10-point response curve (GraphPad Prism).
as §3
(In general: Cellular ATP, detected with luciferase, serves as a proxy for viable cell number.)

Test [3] relates to Ovcar3 (Muc16+) cells. Briefly: In vitro cytotoxicity assay, Ovcar3 cells (CCK8 viability). The settings on record: naked payload, 3 days; for Ovcar3 % kill: % kill reported for the highest dose; for IC50: CCK8. As for the experimental part: as §1
as §2, with “Ovcar3 (Muc16+)” for “SKBR3 (Her2+)”, “3000” for “8000”
as §3

One may read the IC50 as the concentration that gives 50% inhibition. A higher IC50 goes with a need for much substance. As to “Maytan-3-O-carbamoyl-N-(6-methyl-3-amino)benzene [Compound 30e]”, in test [1], the SKBr-3 % kill entry was “*** (*** indicates % kill greater than, or equal to, 90 and less than 95)”; the IC50 lay within 1 to 10 nM. In test [2], the C4-2 % kill result was “**** (**** indicates % kill greater than, or equal to, 95 and less than 99)”; the IC50 was in the range of 1 to 10 nM.

`COc1ccc(NC(=O)O[C@H]2CC(=O)N(C)c3cc(cc(OC)c3Cl)C/C(C)=C/C=C/[C@@H](OC)[C@@]3(O)C[C@H](OC(=O)N3)[C@@H](C)[C@@H]3O[C@@]23C)c(N)c1` [Compound 30i, Maytan-3-O-carbamoyl-N-(4-methoxy-2-amino)benzene]: in test [1], the SKBr-3 % kill result was “***** (***** indicates % kill greater than, or equal to, 99)” and the IC50 fell in the range of 1 to 10 nM. In test [2], the C4-2 % kill entry is “***** (***** indicates % kill greater than, or equal to, 99)” and the IC50 was ≥ 10 nM.

In the case of “Maytan-3-O-carbamoyl-N-(2-methoxy-4-amino)benzene [Compound 30k]”, the Ovcar3 % kill entry in test [3] was “*** (*** indicates % kill greater than, or equal to, 90 and less than 95)”. The IC50 was 0.1 to 1 nM in test [3], 1 to 10 nM in test [1] and ≥ 10 nM in test [2]. Also, in test [1], the SKBr-3 % kill result is recorded as “***** (***** indicates % kill greater than, or equal to, 99)”.

With `COc1cc2cc(c1Cl)N(C)C(=O)C[C@H](OC(=O)Nc1cc(N3CCOCC3)c(N)cc1C)[C@]1(C)O[C@H]1[C@H](C)[C@@H]1C[C@@](O)(NC(=O)O1)[C@H](OC)/C=C/C=C(\C)C2` [Compound 30p, Maytan-3-O-carbamoyl-N-(4-amino-2-methyl-5-morpholin-4-yl)benzene], in test [1], the SKBr-3 % kill entry is listed as “* (* indicates % kill less than 85)” and the IC50 was ≥ 10 nM. Further, in test [2], the IC50 is ≥ 10 nM.

`COc1cc2cc(c1Cl)N(C)C(=O)C[C@H](OC(=O)Nc1cc(N)ccc1F)[C@]1(C)O[C@H]1[C@H](C)[C@@H]1C[C@@](O)(NC(=O)O1)[C@H](OC)/C=C/C=C(\C)C2` [Compound 30h, Maytan-3-O-carbamoyl-N-(2-fluoro-5-amino)benzene]: in test [1], the SKBr-3 % kill entry is “**** (**** indicates % kill greater than, or equal to, 95 and less than 99)”; the IC50 fell in the range of 0.1 to 1 nM. In test [2], the C4-2 % kill entry is on record as “* (* indicates % kill less than 85)” and the IC50 is 1 to 10 nM.

Consider “Maytan-3-O-carbamoyl-N-(2-methyl-3-amino)benzene [Compound 30d]”, for which, in test [1], the SKBr-3 % kill result was “**** (**** indicates % kill greater than, or equal to, 95 and less than 99)”; the IC50 was 1 to 10 nM. In test [2], the C4-2 % kill result was “**** (**** indicates % kill greater than, or equal to, 95 and less than 99)”; the IC50 lay in the range of 1 to 10 nM.

Take `COc1cc2cc(c1Cl)N(C)C(=O)C[C@H](OC(=O)Nc1cc(N3CCCC3)c(N)cc1C)[C@]1(C)O[C@H]1[C@H](C)[C@@H]1C[C@@](O)(NC(=O)O1)[C@H](OC)/C=C/C=C(\C)C2` [Compound 30q, Maytan-3-O-carbamoyl-N-(4-amino-2-methyl-5-pyrrolidin-1-yl)benzene]: in test [1], the SKBr-3 % kill result is “***** (***** indicates % kill greater than, or equal to, 99)” and the half-maximal inhibitory concentration (IC50) was 1 to 10 nM. Besides, in test [2], the C4-2 % kill result is “*** (*** indicates % kill greater than, or equal to, 90 and less than 95)”; the IC50 was ≥ 10 nM.

Take `COc1cc(NC(=O)OC2CC(=O)N(C)c3cc(cc(OC)c3Cl)CC(C)=CC=CC(OC)C3(O)CC(OC(=O)N3)C(C)C3OC23C)ccc1N` (centres unmarked) [Compound 30j, Maytan-3-O-carbamoyl-N-(3-methoxy-4-amino)benzene]: in test [3], the Ovcar3 % kill entry is “** (** indicates % kill greater than, or equal to, 85 and less than 90)”; the IC50 fell in the range of 1 to 10 nM. Besides, in test [1], the SKBr-3 % kill result is “**** (**** indicates % kill greater than, or equal to, 95 and less than 99)”; the half-inhibitory concentration (IC50) was 0.1 to 1 nM. Also, in test [2], the C4-2 % kill result was “*** (*** indicates % kill greater than, or equal to, 90 and less than 95)”; the IC50 is ≥ 10 nM.

`COc1cc2cc(c1Cl)N(C)C(=O)C[C@H](OC(=O)Nc1ccc(N)cc1C)[C@]1(C)O[C@H]1[C@H](C)[C@@H]1C[C@@](O)(NC(=O)O1)[C@H](OC)/C=C/C=C(\C)C2` [Compound 30c, Maytan-3-O-carbamoyl-N-(2-methyl-4-amino)benzene]: in test [3], the Ovcar3 % kill result is “** (** indicates % kill greater than, or equal to, 85 and less than 90)”; the IC50 lay in the range of 1 to 10 nM. Moreover, in test [1], the SKBr-3 % kill entry is “*** (*** indicates % kill greater than, or equal to, 90 and less than 95)”; the 50% inhibitory concentration (IC50) is 1 to 10 nM. Moreover, in test [2], the C4-2 % kill entry is “** (** indicates % kill greater than, or equal to, 85 and less than 90)”; the IC50 was ≥ 10 nM.

On to `COc1cc2cc(c1Cl)N(C)C(=O)C[C@H](OC(=O)Nc1ccc(F)cc1N)[C@]1(C)O[C@H]1[C@H](C)[C@@H]1C[C@@](O)(NC(=O)O1)[C@H](OC)/C=C/C=C(\C)C2` [Compound 30g, Maytan-3-O-carbamoyl-N-(4-fluoro-2-amino)benzene], for which, in test [1], the SKBr-3 % kill entry is recorded as “***** (***** indicates % kill greater than, or equal to, 99)” and the IC50 fell in the range of 0.1 to 1 nM. Also, in test [2], the C4-2 % kill result is reported as “***** (***** indicates % kill greater than, or equal to, 99)” and the IC50 is 1 to 10 nM.

Take `COc1cc2cc(c1Cl)N(C)C(=O)CC(OC(=O)Nc1c(C)cccc1N)C1(C)OC1C(C)C1CC(O)(NC(=O)O1)C(OC)C=CC=C(C)C2` (centres unmarked) [Compound 30f, Maytan-3-O-carbamoyl-N-(6-methyl-2-amino)benzene]: in test [1], the SKBr-3 % kill result was “***** (***** indicates % kill greater than, or equal to, 99)” and the IC50 was in the range of 0.1 to 1 nM. Besides, in test [2], the C4-2 % kill entry is “**** (**** indicates % kill greater than, or equal to, 95 and less than 99)”; the IC50 was in the range of 1 to 10 nM.

Regarding `COc1cc2cc(c1Cl)N(C)C(=O)CC(OC(=O)Nc1ccc(N)cc1)C1(C)OC1C(C)C1CC(O)(NC(=O)O1)C(OC)C=CC=C(C)C2` (centres unmarked) [Compound 8, Maytan-3-O-carbamoyl-N-(4-aminobenzene)], in test [3], the Ovcar3 % kill result is “** (** indicates % kill greater than, or equal to, 85 and less than 90)”; the IC50 was in the range of 1 to 10 nM. For the same compound, in test [1], the SKBr-3 % kill entry was “**** (**** indicates % kill greater than, or equal to, 95 and less than 99)”; the IC50 was 1 to 10 nM. Further, in test [2], the C4-2 % kill result is “**** (**** indicates % kill greater than, or equal to, 95 and less than 99)”; the half-maximal inhibitory concentration (IC50) was ≥ 10 nM.

`COc1cc2cc(c1Cl)N(C)C(=O)CC(OC(=O)Nc1ccc(Cl)cc1N)C1(C)OC1C(C)C1CC(O)(NC(=O)O1)C(OC)C=CC=C(C)C2` (centres unmarked) [Compound 30b, Maytan-3-O-carbamoyl-N-(4-chloro-2-amino)benzene]: in test [1], the SKBr-3 % kill result is “**** (**** indicates % kill greater than, or equal to, 95 and less than 99)”; the 50% inhibitory concentration (IC50) lay within 0.1 to 1 nM. Besides, in test [2], the C4-2 % kill entry is “* (* indicates % kill less than 85)” and the IC50 is ≥ 10 nM.

In the case of “Maytan-3-O-carbamoyl-N-(4-trifluoromethoxy-2-amino)benzene [Compound 30n]”, in test [1], the SKBr-3 % kill result is recorded as “***** (***** indicates % kill greater than, or equal to, 99)” and the IC50 lay within 1 to 10 nM. Moreover, in test [2], the C4-2 % kill result is “***** (***** indicates % kill greater than, or equal to, 99)” and the IC50 is ≥ 10 nM.

In the case of `COc1cc2cc(c1Cl)N(C)C(=O)CC(OC(=O)Nc1cc(Cl)c(F)cc1N)C1(C)OC1C(C)C1CC(O)(NC(=O)O1)C(OC)C=CC=C(C)C2` (centres unmarked) [Compound 30o, Maytan-3-O-carbamoyl-N-(4-fluoro-5-chloro-2-amino)benzene], in test [1], the SKBr-3 % kill result is listed as “***** (***** indicates % kill greater than, or equal to, 99)” and the IC50 lay within 0.1 to 1 nM. In test [2], the C4-2 % kill result is reported as “* (* indicates % kill less than 85)” and the IC50 is ≥ 10 nM.

As for `COc1cc2cc(c1Cl)N(C)C(=O)CC(OC(=O)Nc1ccc(N)c(C(F)(F)F)c1)C1(C)OC1C(C)C1CC(O)(NC(=O)O1)C(OC)C=CC=C(C)C2` (centres unmarked) [Compound 30l, Maytan-3-O-carbamoyl-N-(3-trifluoromethyl-4-amino)benzene], in test [3], the Ovcar3 % kill entry was “*** (*** indicates % kill greater than, or equal to, 90 and less than 95)”; the IC50 was in the range of 0.1 to 1 nM. In addition, in test [1], the SKBr-3 % kill result was “***** (***** indicates % kill greater than, or equal to, 99)” and the IC50 was in the range of 0.1 to 1 nM. For the same compound, in test [2], the half-inhibitory concentration (IC50) was ≥ 10 nM.
